Reference: patent US7615542B2, “Dioxolane thymine and combinations for use against 3TC/AZT resistant strains of HIV” (priority 2002, dated 2009)

Legend:
HIV-1 isolate 488-101 = experiment: microbe, parasite or virus in culture; assay type: cell-based; conditions: for Phenotype for 488-101: resistance phenotype comparison, Table 5; for IC50: Human immunodeficiency virus 1, PBMC, isolate 488-101 (post-treatment), read-out: Drug (IC50)
Experimental: (§1) The following Tables 2 and 3, set forth below, describe the HIV resistant strains genotypically (Table 2) and phenotypically (Table 3) which were used in the experiments to test activity.
(§2) Each of the three test compounds were tested for efficacy against the various strains of HIV-1. Anti-HIV efficacy was evaluated in PBMC, reverse transcriptase activity was tested in a microtiter plate-based reverse transciptase assay (Buckeit, et al., AIDS Research and Human Retroviruses, 7:295-302, 1991), MTS staining was used for determining cell viability.
(§3) The compounds were also evaluated in a parallel assay for cytotoxicity in uninfected PBM cells.

HIV-1 isolate LAI M184V = experiment: Anti-HIV efficacy in PBMC, isolate LAI M184V; assay type: cell-based; conditions: for Phenotype for LAI M184V: resistance phenotype comparison, Table 5
Experimental: as §1, §2, §3

HIV-1 isolate G910-6 = experiment: Anti-HIV efficacy in PBMC, isolate G910-6; assay type: cell-based; conditions: for Phenotype for G910-6: resistance phenotype comparison, Table 5; for IC50: Human immunodeficiency virus 1, PBMC, isolate G910-6 (post-treatment), read-out: Drug (IC50)
Experimental: as §1, §2, §3

[1] = system: panel of HIV-1 3TC/AZT drug sensitive/resistant matched pair virus isolates; experiment: Standardized PBMC cell-based anti-HIV assay, matched pair panel; conditions: AZT and/or 3TC resistant isolates
Experimental: as §2, §3

HIV-1 isolate 5705-0 = experiment: Anti-HIV efficacy in PBMC, isolate 5705-0; assay type: cell-based; conditions: for IC50: Human immunodeficiency virus 1, PBMC, isolate 5705-0 (pre-treatment), read-out: Drug (IC50)
Experimental: as §1
as §2, with “viability. […] Table 5 presents a resistance phenotype comparison for compounds of the present invention versus the compounds 3TC and AZT.” for “viability.”
as §3

HIV-1 isolate 5705-72 = experiment: Anti-HIV efficacy in PBMC, isolate 5705-72; assay type: cell-based; conditions: for IC50: Human immunodeficiency virus 1, PBMC, isolate 5705-72 (post-treatment), read-out: Drug (IC50)
Experimental: as §1, §2, §3

HIV-1 isolate 488-0 = experiment: Anti-HIV efficacy in PBMC, isolate 488-0; assay type: cell-based; conditions: for IC50: Human immunodeficiency virus 1, PBMC, isolate 488-0 (pre-treatment), read-out: Drug (IC50)
Experimental: as §1
as §2, with “viability. […] Table 5 presents a resistance phenotype comparison for compounds of the present invention versus the compounds 3TC and AZT.” for “viability.”
as §3

HIV-1 isolate LAI = experiment: Anti-HIV efficacy in PBMC, isolate LAI; assay type: cell-based; conditions: for IC50: Human immunodeficiency virus 1, PBMC, read-out: Drug (IC50)
Experimental: as §1
as §2, with “viability. […] Table 5 presents a resistance phenotype comparison for compounds of the present invention versus the compounds 3TC and AZT.” for “viability.”
as §3

HIV-1 isolate H112-2 = experiment: Anti-HIV efficacy in PBMC, isolate H112-2; assay type: cell-based; conditions: for IC50: Human immunodeficiency virus 1, PBMC, isolate H112-2 (pre-treatment), read-out: Drug (IC50)
Experimental: as §1
as §2, with “viability. […] Table 5 presents a resistance phenotype comparison for compounds of the present invention versus the compounds 3TC and AZT.” for “viability.”
as §3

[2] = system: mutations 65R, 74V, 184V, and 115F in the RT gene; conditions: mutants harboring 2 or 3 of these mutations; cited from earlier work

Structure (SMILES)	Phenotype for 488-101 (HIV-1 isolate 488-101)	Phenotype for LAI M184V (HIV-1 isolate LAI M184V)	Phenotype for G910-6 (HIV-1 isolate G910-6)	Cross-resistance / resistance profile [1]	IC50 (HIV-1 isolate 5705-0)	IC50 (HIV-1 isolate 5705-72)	IC50 (HIV-1 isolate 488-0)	IC50 (HIV-1 isolate 488-101)	IC50 (HIV-1 isolate LAI)	IC50 (HIV-1 isolate H112-2)	IC50 (HIV-1 isolate G910-6)	other results
Nc1nc2c(ncn2[C@H]2CO[C@@H](CO)O2)c(=O)[nH]1 [DXG, beta-D-9-(5-hydroxymethyl-dioxolanyl-2-yl)guanine]	Sensitive (<5 fold resistance, Sensitive)	Resistant (>5 fold resistance, Resistant)	Sensitive (<5 fold resistance, Sensitive)	resistance profile similar to that of 3TC								
Cc1cn([C@H]2C[C@H](N=[N+]=[N-])[C@@H](CO)O2)c(=O)[nH]c1=O [AZT, 3′-Azido-3′-deoxythymidine]		Sensitive (<5 fold resistance, Sensitive)	Resistant (>5 fold resistance, Resistant)		3 to 8 nM	30 nM	0.3 to 0.6 nM	80 nM	20 nM	10 nM	620 nM	Phenotype (HIV-1 isolate 5705-0; isolate 5705-0, Table 3): Sensitive; Phenotype (HIV-1 isolate 488-0; isolate 488-0, Table 3): Sensitive; Phenotype (HIV-1 isolate 488-101; isolate 488-101, Table 3): Resistant; Phenotype (HIV-1 isolate LAI; Table 3): Sensitive; Phenotype (HIV-1 isolate LAI M184V; isolate LAI-M184V, Table 3): Sensitive; Phenotype (HIV-1 isolate H112-2; isolate H112-2, Table 3): Sensitive; Phenotype (HIV-1 isolate G910-6; isolate G910-6, Table 3): Resistant
Nc1ccn([C@@H]2CS[C@H](CO)O2)c(=O)n1 [3TC, Lamivudine]	Resistant (>5 fold resistance, Resistant)		Sensitive (<5 fold resistance, Sensitive)		4 to 9 nM	> 50000 nM	30 to 47 nM	40600 nM	10 nM	170 nM	320 nM	IC50 (HIV-1 isolate LAI M184V; Human immunodeficiency virus 1, PBMC, isolate LAI-M184V, read-out: Drug (IC50)): > 50000 nM
Nc1nc(N)c2ncn(C3COC(CO)O3)c2n1 [DAPD, beta-D-9-(5-hydroxymethyl-dioxolanyl-2-yl)-2,4-diamino-purine]	Sensitive (<5 fold resistance, Sensitive)	Sensitive (<5 fold resistance, Sensitive)	Sensitive (<5 fold resistance, Sensitive)	resistance profile similar to AZT								Resistance phenotype (HIV-1 isolate 5705-72; resistance phenotype comparison, Table 5): Resistant (>5 fold resistance, Resistant)
Nc1nc(NC2CC2)c2ncn([C@H]3C=C[C@@H](CO)C3)c2n1 [abacavir, Abacavir]												resistance to the drug [2]: approximately 10 fold
